From patent US20170202783A1, “Amphiphilic Peptide Nanoparticles for Use as Hydrophobic Drug Carriers and Antibacterial Agents” (Northeastern University, priority 2014, published 2017)
Where a SMILES comes first, the peptide text is derived from it. The star is where a group is joined. Stearoyl = CCCCCCCCCCCCCCCCCC(=O)*

How the values were obtained:
[1] = Solubility of curcumin in water; format: physicochemical; conditions: thermodynamic from solid
MG-63 osteosarcoma cells [2] = experiment: Cellular uptake of curcumin by bright field and confocal microscopy; format: cell-based, human; conditions: 20 μM curcumin
Experimental: (§1) A confocal laser scanning microscope and a bright field microscope were used for a qualitative study of the cellular uptake of curcumin from curcumin-loaded APNPs. First, 1 mL each of the osteosarcoma cell line and the healthy human osteoblast cell line were seeded on a 24-well plate at a density of 2×10^4 cells/mL. […] The cells were then rinsed with phosphate-buffered saline three times to remove the unabsorbed curcumin. The qualitative uptake of curcumin was then monitored by bright field microscopy. In another study, the nuclei of the cells were tracked by blue fluorescent DAPI staining using confocal microscopy (FIGS. 8A-8F), and the F-actin filaments of cells were stained with red fluorescent Rhodamine 6G. After 10 minutes of fixation by 10% formaldehyde solution and subsequent treatment with a 0.1% Triton X-100 solution for 10 minutes, the cells were stained with DAPI and Atto Rho6G phalloidin and observed using a Zeiss LSM710 laser scanning confocal microscope.

[3] = system: healthy human osteoblasts; experiment: as above; format: cell-based; conditions: normal human osteoblast cells, 20 μM curcumin
Experimental: as §1

[4] = background statement; cited from earlier work
[5] = Zeta potential measurement (ZS90 Nanosizer); format: physicochemical; conditions: deionized water
Experimental: The zeta potential of the nanoparticles was determined using 1 mL of each sample, each measured for ten preparations in triplicate.

MG-63 osteosarcoma cells [6] = experiment: MTT cytotoxicity assay; conditions: osteosarcoma cell line, highest concentration investigated, 24 hours, serum-free medium
Experimental: (§2) MG-63 osteosarcoma (CRL-1427) cells (American Type Culture Collection) were cultured in Eagle's Minimum Essential Medium supplemented with 10% fetal bovine serum and 1% penicillin/streptomycin, while healthy human osteoblasts (C-12760, PromoCell) were cultured in complete growth medium composed of osteoblast basal medium and osteoblast growth medium Supplement Mix. Both cell lines were incubated at 37° C. in a humidified incubator with an atmosphere of 95% […] and 5% CO2. Cells were used at population doubling numbers less than 3. Eagle's Minimum Essential Medium was purchased from the American Type Culture Collection (Manassas, Va., USA), and osteoblast basal medium and osteoblast growth medium Supplemental Mix were purchased from PromoCell (Heidelberg, Germany). Methyl-thiazolyl-tetrazolium (MTT) dye solution was purchased from Promega (Madison, Wis., USA). 4′,6-diamidino-2-phenylindole (DAPI), and Atto Rho6G phalloidin were supplied by Sigma-Aldrich (St Louis, Mo., USA).
(§3) 100 μL of the osteosarcoma and healthy osteoblast cell suspensions were seeded on a 96-well plate at 2×10^3 cells/well (cell density 6,154 cells/cm^2). […] Cells treated with medium only were used as a […] control. […]
(§4) The cells were treated for 24 hours. […] Cell viability was expressed as the ratio of cell density in each sample to the cell density in the control sample.

[7] = system: healthy human osteoblasts; experiment: MTT cytotoxicity assay; conditions: human osteoblast cell line, highest concentration investigated, 24 hours, serum-free medium
Experimental: as §2, §3, §4

Human dermal fibroblasts = conditions: 24 hours, MTS
Experimental: Human dermal fibroblasts (Lonza, CC-2511) were plated at a density of 10,000 cells/cm^2 in a 96-well plate and maintained in DMEM culture medium supplemented with 10% fetal bovine serum (FBS, Hyclone) and 1% penicillin/streptomycin (P/S, Hyclone). APNPs were added to the culture medium to achieve the indicated final concentration of C18GR7RGDS, and the cells were incubated for 24 hours prior to determination of cell density by MTS assay.

| Structure (SMILES) | solubility [1] [µg/mL] | curcumin uptake, confocal fluorescence (MG-63 osteosarcoma cells [2]) | curcumin uptake, bright field microscopy (MG-63 osteosarcoma cells [2]; 2 hours) | curcumin uptake, confocal fluorescence [3] | curcumin uptake, bright field microscopy ([3]; 2 hours) | solubility in water [4] | stability in aqueous solution (indicated by zeta potential) [5] | cytotoxicity (MG-63 osteosarcoma cells [6]) | cytotoxicity [7] | concentration resulting in significant loss of cell viability (reduced density of living cells) (Human dermal fibroblasts) [µM] |
| --- | --- | --- | --- | --- | --- | --- | --- | --- | --- | --- |
| COc1cc(/C=C/C(=O)CC(=O)/C=C/c2ccc(O)c(OC)c2)ccc1O [curcumin, diferuloylmethane] | < 100 | neither cell line showed detectable fluorescence | did not accumulate in the cytosol | neither cell line showed detectable fluorescence | did not accumulate in the cytosol | insoluble in water |  |  |  |  |
| CCCCCCCCCCCCCCCCCC(=O)NCC(=O)N[C@@H](CCCNC(=N)N)C(=O)N[C@@H](CCCNC(=N)N)C(=O)N[C@@H](CCCNC(=N)N)C(=O)N[C@@H](CCCNC(=N)N)C(=O)N[C@@H](CCCNC(=N)N)C(=O)N[C@@H](CCCNC(=N)N)C(=O)N[C@@H](CCCNC(=N)N)C(=O)N[C@@H](CCCNC(=N)N)C(=O)NCC(=O)N[C@@H](CC(=O)O)C(=O)N[C@@H](CO)C(=O)O [pure C18GR7RGDS APNPs] (Stearoyl-GRRRRRRRRGDS-OH) |  |  |  |  |  |  | stable in aqueous solution | minor cytotoxicity | minor cytotoxicity | ≥ 40 |
